Test systems include DLD-1; KM-20L2; HOP-18; CAKI-1; LXFL 529; MDA-MB-231; PC-3; DU-145; RXF 631.
What all share (experiment): NCI tumour cell line growth inhibition, 48 h

Molecules are shown by their SMILES.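 Test compounds were applied to cells in 96-well plates for 48 hours at 5 doses. The concentration for 50% growth inhibition is given as GI50.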 Activity calls are given as the source filed them. Rule as the data show it: active = GI50 up to about 1.1 µM and inactive = higher.

Consider `O=C1ON(Cc2ccccc2)C(c2ccccc2)N1c1ccccc1` (centres undefined), for which the GI50 in the experiment with DLD-1, in the experiment on KM-20L2 and with HOP-18 was > 100 µM (inactive) in each case.

In the case of `O=NN1C(c2ccccc2)CCCC1c1ccccc1` (centres undefined), the GI50 in the experiment on DLD-1 was > 90.6 µM (inactive); in the experiment with KM-20L2, > 100 µM (inactive); in the experiment on HOP-18, > 77.8 µM (inactive); in the experiment on CAKI-1, 97.7 µM (inactive).

As for `CC(OC(C)(C)C)[C@H](NC(=O)OCC(Cl)(Cl)Cl)C(=O)O` (some centres undefined), the GI50 in the experiment with DLD-1, in the experiment with KM-20L2, with CAKI-1 and in the experiment on LXFL 529 was > 100 µM (inactive) throughout.

`CCOC(=O)C1=C(C)N(C2OC(COC(=O)c3ccccc3)C(OC(=O)c3ccccc3)C2OC(=O)c2ccccc2)C(=S)NC1c1ccccc1` (centres undefined): the GI50 was 38.9 µM (inactive) in the experiment with DLD-1; 43.6 µM (inactive) with KM-20L2; 16.7 µM (inactive) with HOP-18; 24.4 µM (inactive) with CAKI-1; 27.2 µM (inactive) in the experiment with LXFL 529.

As to `CC(=O)OCC1OC(OCCCCCCO)C(OC(C)=O)C(OC(C)=O)C1OC(C)=O` (centres undefined), the GI50 in the experiment with MDA-MB-231, in the experiment on PC-3 and with CAKI-1 was > 100 µM (inactive) in each case.

On to `O=C1C(Cl)N(c2cccc(Cl)c2)C1c1c[nH]c2ccccc12` (centres undefined), for which the GI50 in the experiment on KM-20L2 and with LXFL 529 was > 100 µM (inactive) in each case.

As to `Cc1ccc(-c2cc(-c3ccco3)c(C#N)c(=O)n2C2OC(CO)C(O)C(O)C2O)cc1` (centres undefined), the GI50 with DLD-1 was 67.6 µM (inactive); in the experiment with KM-20L2, > 100 µM (inactive); with HOP-18, > 100 µM (inactive); in the experiment on LXFL 529, 61.9 µM (inactive).

`CC1(c2ccccc2)N=c2[nH]cnc2=C(C(N)=O)N1` (centres undefined): the GI50 in the experiment on DU-145, in the experiment on MDA-MB-231, with PC-3 and with CAKI-1 was > 100 µM (inactive) throughout.

On to `CCOC(=O)C(Cc1ccccc1)NC(=O)OC(C)(C)C` (centres undefined), for which the GI50 is > 100 µM (inactive) in the experiment with DLD-1, > 100 µM (inactive) with RXF 631, > 10 µM (inactive) with CAKI-1 and > 100 µM (inactive) in the experiment on LXFL 529.

As for `COc1ccc(-c2cc(-c3cc(OC)c(OC)c(OC)c3)cc(-c3cc4ccccc4oc3=O)n2)cc1`, the GI50 with DU-145 was 9.53 µM (inactive); with MDA-MB-231, 2.3 µM (inactive); with PC-3, 19.6 µM (inactive); in the experiment with CAKI-1, 4.86 µM (inactive).

For `Clc1cc2c(c(CSC3=NCN(CC4CC4)CN3)c1)OCOC2`, the GI50 with DU-145 is 26.1 µM (inactive); in the experiment with MDA-MB-231, 19.5 µM (inactive); in the experiment on PC-3, 23 µM (inactive); with CAKI-1, 34.2 µM (inactive).

Regarding `Cc1ccc(NC(=O)CC(=O)n2nc(-c3ccccc3)c(/N=N/c3ccccc3Cl)c2-c2ccccc2)cc1`, the GI50 in the experiment on DLD-1 was > 10 µM (inactive); in the experiment with KM-20L2 it was > 10 µM (inactive); in the experiment on HOP-18, 38.1 µM (inactive); in the experiment on RXF 631, 96.2 µM (inactive); with CAKI-1, 42.6 µM (inactive); in the experiment on LXFL 529 it was 71.8 µM (inactive).

On to `COC(=O)c1ccc(/N=N/N(C)COc2ccc([N+](=O)[O-])cc2)cc1`, for which the GI50 is > 100 µM (inactive) in the experiment on DLD-1 and 54.3 µM (inactive) in the experiment on KM-20L2.

Turning to `COc1ccc2c(c1)CCN=C2Cc1cc(OC)c(OC)cc1CCCl`, the GI50 in the experiment on DU-145 was > 100 µM (inactive); in the experiment with MDA-MB-231, 32.1 µM (inactive); in the experiment with PC-3, 48 µM (inactive); in the experiment with CAKI-1 it was > 100 µM (inactive).

As for `N#CC1(C#N)C(=O)c2ccncc2C1=O`, the GI50 in the experiment with DU-145, in the experiment with MDA-MB-231, with PC-3 and in the experiment with CAKI-1 was > 100 µM (inactive) throughout.

In the case of `CN1NC(c2ccccc2)=C(C#N)C(=O)CC1c1ccc(Br)cc1` (centres undefined), the GI50 in the experiment with DLD-1 was 26.1 µM (inactive); in the experiment on KM-20L2, > 10 µM (inactive); with HOP-18 it was 17.9 µM (inactive); with CAKI-1 it was 41.9 µM (inactive); in the experiment on LXFL 529 it was 35.7 µM (inactive).

Turning to `O=C1NC2=C(CCCC/C2=N\O)C12CCCCC2`, the GI50 with DLD-1, in the experiment with KM-20L2 and in the experiment on LXFL 529 was > 100 µM (inactive) throughout.

Consider `COc1cc(/C=C/C(=O)C(C)(C)C)cc(OC)c1OC`, for which the GI50 in the experiment with DLD-1 is 37.9 µM (inactive); in the experiment with KM-20L2 it was 51.1 µM (inactive); in the experiment with HOP-18, > 100 µM (inactive); in the experiment with CAKI-1, 50.1 µM (inactive); in the experiment on LXFL 529, 22.8 µM (inactive).

Consider `C=C(C)[C@@H]1CCC2=C[C@H](CC(C)=CC3=CC(C)=C(O3)[C@@H]1OC)OC2=O`, for which the GI50 in the experiment with DU-145 is > 100 µM (inactive); with MDA-MB-231 it was 29.5 µM (inactive); in the experiment on PC-3, 83.8 µM (inactive); with CAKI-1, > 100 µM (inactive).

As for `CCOC(=O)c1ccc(N(CCOS(=O)(=O)c2ccc(C)cc2)CCOS(=O)(=O)c2ccc(C)cc2)cc1`, the GI50 was 27.2 µM (inactive) in the experiment on MDA-MB-231, 17 µM (inactive) in the experiment on PC-3 and 4.94 µM (inactive) in the experiment with CAKI-1.

For `CCOC(=O)CC(=O)CSc1c(-c2ccccc2)c(=O)n(-c2ccccc2)c(=S)n1-c1ccccc1`, the GI50 with DU-145, in the experiment on MDA-MB-231, with PC-3 and in the experiment on CAKI-1 was > 100 µM (inactive) each time.

Turning to `Cc1ccc(Nc2n[nH]c(NS(=O)(=O)c3cc(C(=O)Nc4ccc(Cl)cc4)c(Cl)cc3S)n2)cc1`, the GI50 in the experiment with DU-145, with MDA-MB-231, with PC-3 and in the experiment on CAKI-1 was > 100 µM (inactive) in each case.

Take `CC(=O)O[C@]12CCCCCC1C1(O)C(O)CCCC[C@H]12` (some centres undefined): the GI50 in the experiment on KM-20L2 and in the experiment on LXFL 529 was > 100 µM (inactive) throughout.

Consider `CN(C)C(=O)C1CCN(Cc2c[nH]c3ccccc23)CC1`, for which the GI50 with DU-145, in the experiment with MDA-MB-231, in the experiment with PC-3 and in the experiment with CAKI-1 was > 100 µM (inactive) in each case.

`O=[N+]([O-])c1ccc(C2Nn3c(nnc3-c3cccc([N+](=O)[O-])c3)S2)cc1` (centres undefined): the GI50 in the experiment with DU-145, in the experiment with MDA-MB-231, in the experiment on PC-3 and in the experiment on CAKI-1 was > 100 µM (inactive) in each case.

For `O=S(=O)(O)c1ccc(/N=N\c2ccc(/N=N/c3ccc(/C=C/c4ccc(/N=[N+](\[O-])c5ccc(/C=C/c6ccc(/N=N/c7ccc(/N=N/c8ccc(S(=O)(=O)O)cc8)c8ccccc78)cc6S(=O)(=O)O)c(S(=O)(=O)O)c5)cc4S(=O)(=O)O)c(S(=O)(=O)O)c3)c3ccccc23)cc1`, the GI50 in the experiment on DLD-1 was > 100 µM (inactive); in the experiment with KM-20L2 it was > 100 µM (inactive); in the experiment with HOP-18, 30.5 µM (inactive).

Turning to `O=C(O)Cc1cccc2c1Oc1ccccc1S2`, the GI50 in the experiment with DLD-1, in the experiment on KM-20L2 and in the experiment on LXFL 529 was > 100 µM (inactive) in each case.

As for `CC(=O)O[C@@]12CO[C@@H]1CC(O)[C@@]1(C)C(=O)[C@H](O)C3=C(C)C(O)C[C@@](O)(C(OC(=O)c4ccccc4)C12)C3(C)C` (some centres undefined), the GI50 is 0.679 µM (active) in the experiment with KM-20L2; 3.35 µM (inactive) with DU-145; 4.19 µM (inactive) in the experiment with MDA-MB-231; 0.881 µM (active) with PC-3; 24.8 µM (inactive) with CAKI-1.

Consider `C[C@]12CCC(=O)C(O)=C1CC[C@@H]1[C@@H]2CC[C@]2(C)C(=O)CC[C@@H]12` [FORMESTANE], for which the GI50 with DLD-1, in the experiment on KM-20L2, in the experiment with DU-145, with MDA-MB-231, in the experiment on RXF 631 and in the experiment with PC-3 was > 100 µM (inactive) each time. The GI50 in the experiment with CAKI-1 is > 92.9 µM (inactive); in the experiment on LXFL 529, 59.3 µM (inactive).

Source of the values: ChEMBL document CHEMBL1201862, “PubChem BioAssay data set” (2004).
